The values below come from patent publication US20070015828A1 (Wyeth, priority 2005, published 2007).

SMILES strings stand for the structures.

A short description of data set [1]: pH-Solubility. Format: physicochemical. The note with it: free base.
The test system of data set [2] is CACO-2 cells. The data set can be described thus: Permeability assessment, HTS-24 CACO-2 model. Type of data set: in vitro ADME. The method, then: The rate of drug transport through the CACO-2 cells was determined as the Apparent Permeability Coefficient according to the following formula:
Papp=AQ X Rv cm.s- AT 60.A.Co
ΔT=Change in time (minutes)
Co=Initial concn in the donor chamber (mM.cm^−3)
A=Surface area of membrane (cm^2)
60=Conversion factor to give cm.s^−1
Rv=volume of receiver compartment.
Transepithelial electrical resistance (TER) was calculated from resistance measurements according to the following formula: TER=(R[cells+filter+medium])−(R[filter+medium])×cell area.
Apparent permeability rates were interpreted as follows. […] Apparent permeability values less than metoprolol or propranolol are considered to be ≦90% fa (moderate permeability classification). Apparent permeability values of <10 nms^−1 are considered to be ≦50% fa (low permeability classification). TER values of <120 ohms cm^2 indicate low monolayer integrity over the assay period.
A compound/metoprolol or propranolol ratio of <1 indicates a moderate to low permeability compound.

For data set [3], the system named is Adenosine A1. As to the kind of experiment: Receptor binding assay: Adenosine A1. To be noted: Test Compound @ 10 1 M.
Data set [4] deals with T1, Benzodiazepine, peripheral (h) (Homo sapiens, UniProt P30536).
T1 construct: Novascreen (assay provider)
The data set can be described thus: Receptor binding assay: Benzodiazepine peripheral. The note with it: Test Compound @ 10 1 M.

Data set [5] relates to Glycine, Strychnine-sensitive. The data set can be described thus: Receptor binding assay: Glycine strychnine-sensitive. To be noted: Test Compound @ 10 1 M.
Data set [6] concerns Sigma 1. The data set can be described thus: Receptor binding assay: Sigma 1. The note with it: Test Compound @ 10 1 M.

T1 sequence (P30536 whole entry): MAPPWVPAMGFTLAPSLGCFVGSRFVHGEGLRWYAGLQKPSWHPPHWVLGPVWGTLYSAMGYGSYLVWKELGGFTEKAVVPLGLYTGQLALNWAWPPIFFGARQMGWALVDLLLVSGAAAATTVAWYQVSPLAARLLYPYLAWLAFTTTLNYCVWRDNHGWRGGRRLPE

With `CN(C)CC(c1ccc(O)cc1)C1(O)CCC(O)CC1` (stereo not drawn) [1-[2-dimethylamino-1-(4-phenol)ethyl]-cis-1,4-cyclohexandiol], the pH-Solubility entry is “Final pH 1.4 24.2 mg/ml” in data set [1] (Final pH 1.4), “Final pH 3.99 24.1 mg/ml” in data set [1] (Final pH 3.99), “Final pH 5.79 26.7 mg/ml” in data set [1] (Final pH 5.79) and “Final pH 8.4 22.7 mg/ml” in data set [1] (Final pH 8.4). For the same compound, in data set [2] (CACO-2, from B:A ratio), the efflux activity result is recorded as “no efflux activity”. The permeability classification entry in data set [2] (CACO-2, versus propranolol reference) is on record as “high permeability”. The “Receptor Binding % Inhibition” value is listed as −8.51% in data set [3], −2.38% in data set [5] and 2.96% in data set [6]. Besides, at 10 µM the inhibition in data set [4] was 1.65%.
